Source: ChEMBL document CHEMBL3638722, “Inhibitors of cytochrome P450” (2015)
pIC50: −log10 of the molar value. Values joined by “and” are separate entries in the source; they are usually repeats but may differ in a detail not shown here. Equal entries are not always repeated.

Molecular target: Cytochrome P450 3A4 (Homo sapiens, UniProt P08684)
Assay: For testosterone hydroxylase activity the final microsomal protein concentration was 0.5 mg/mL, the substrate concentration was 50 uM and the LC-MS internal standard was D7-labeled 6beta -hydroxytestosterone.

Cytochrome P450 3A4, sequence (P08684 whole entry): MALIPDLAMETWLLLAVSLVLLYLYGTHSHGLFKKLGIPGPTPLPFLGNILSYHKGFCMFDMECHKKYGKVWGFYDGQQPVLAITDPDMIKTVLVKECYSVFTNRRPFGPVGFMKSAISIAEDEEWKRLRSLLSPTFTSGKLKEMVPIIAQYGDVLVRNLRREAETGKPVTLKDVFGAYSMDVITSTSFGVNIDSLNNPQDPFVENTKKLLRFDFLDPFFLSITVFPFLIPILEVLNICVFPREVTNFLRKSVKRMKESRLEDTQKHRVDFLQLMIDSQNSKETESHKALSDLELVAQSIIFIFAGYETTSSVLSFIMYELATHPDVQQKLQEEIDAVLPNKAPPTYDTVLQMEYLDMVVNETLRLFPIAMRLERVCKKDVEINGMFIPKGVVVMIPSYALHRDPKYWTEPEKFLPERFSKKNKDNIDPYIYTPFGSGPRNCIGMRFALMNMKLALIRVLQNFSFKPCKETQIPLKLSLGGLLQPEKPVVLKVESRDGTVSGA

pIC50: 6.82 and 6.47
SMILES: CC(C)c1nc(CN(C)C(=O)NC2(C(=O)N[C@H](CC[C@H](Cc3ccccc3)NC(=O)OCc3cncs3)Cc3ccccc3)CCNCC2)cs1
